Among the test systems are A498; NCI-H226; PC-3; NCI-H522; HOP-92; IGROV-1; HT-29; BT-549; OVCAR-8; NCI-H23; NCI-H460; HCT-116; SF-539; OVCAR-4; COLO 205; EKVX; SN12C; MCF7; UACC-62; MDA-MB-435.
Common to all, as to test: DTP human tumour cell line panel, 48 h

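Five compound concentrations were applied to cells in 96-well plates for 48 hours; endpoints were derived by simple linear interpolation of the resulting dose-response curve. Here, GI50 denotes the concentration required for 50% inhibition of growth.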 The source made the active and inactive calls. No stated cut-off is given here; in the data, active = GI50 up to about 1.1 µM and inactive = higher. Where only a bound is given, the exact number is not on record here.

One may read the GI50 as the concentration that inhibits growth by half. Consider `CC(C)N(C(C)C)S(=O)(=O)C[C@]12CC[C@H](CC13OCC(CS(=O)(=O)c1ccccc1)O3)C2(C)C` (stereo not given in full), for which the GI50 in the assay on A498 was 56.6 µM (inactive); with NCI-H226, 34.1 µM (inactive); with PC-3, 35.3 µM (inactive); in the assay on NCI-H522 it was 21.8 µM (inactive); in the assay with HOP-92, > 24.3 µM (inactive); with IGROV-1 it was > 28.7 µM (inactive). The GI50 in the assay with HT-29 is 33.4 µM (inactive); in the assay on BT-549, > 85.3 µM (inactive); with OVCAR-8, 47 µM (inactive); in the assay on NCI-H23, 47.3 µM (inactive); with NCI-H460, 39.2 µM (inactive); with HCT-116, 35.9 µM (inactive). In addition, the GI50 was 44.8 µM (inactive) in the assay on SF-539; 40.8 µM (inactive) in the assay with OVCAR-4; 17.6 µM (inactive) in the assay with COLO 205; 39.3 µM (inactive) with EKVX; 47.8 µM (inactive) in the assay with SN12C; 36 µM (inactive) in the assay with MCF7. The GI50 is 49 µM (inactive) in the assay on UACC-62 and 47.1 µM (inactive) in the assay on MDA-MB-435.
Turning to `CCNc1ccc2c(c1)Cc1ccccc1-2`, the GI50 with A498 is 43.3 µM (inactive); in the assay with NCI-H226, 54.7 µM (inactive); in the assay with PC-3, 35.4 µM (inactive); in the assay on NCI-H522, 32.7 µM (inactive); in the assay with HOP-92, 21.2 µM (inactive); in the assay with IGROV-1 it was 37 µM (inactive). For the same compound, the GI50 was 50.5 µM (inactive) in the assay on HT-29; 34.5 µM (inactive) in the assay with BT-549; 51.5 µM (inactive) in the assay on OVCAR-8; 14.3 µM (inactive) in the assay on NCI-H23; 18 µM (inactive) in the assay with NCI-H460; > 100 µM (inactive) with HCT-116. Also, the GI50 in the assay on SF-539 was 43.8 µM (inactive); in the assay with OVCAR-4, 75.3 µM (inactive); in the assay with COLO 205, 64.9 µM (inactive); in the assay with EKVX, 32.4 µM (inactive); with SN12C, 64 µM (inactive); in the assay on MCF7, 23.7 µM (inactive). Also, the GI50 in the assay with UACC-62 was 40.7 µM (inactive); in the assay with MDA-MB-435 it was 49.5 µM (inactive).
Consider `COC(=O)Nc1nc2cc(NS(=O)(=O)c3ccc(F)cc3)ccc2[nH]1`, for which the GI50 was 11.3 µM (inactive) in the assay on A498; 77.8 µM (inactive) with NCI-H226; 22.9 µM (inactive) with PC-3; 2.1 µM (inactive) in the assay on NCI-H522; 10.5 µM (inactive) in the assay on HOP-92; 2.15 µM (inactive) in the assay on IGROV-1. In addition, the GI50 is 7.73 µM (inactive) in the assay with HT-29; > 100 µM (inactive) with BT-549; 35 µM (inactive) with OVCAR-8; 21.8 µM (inactive) in the assay on NCI-H23; 24.7 µM (inactive) in the assay with NCI-H460; 4.54 µM (inactive) with HCT-116. Moreover, the GI50 in the assay on SF-539 is 12.2 µM (inactive); in the assay with OVCAR-4 it was 33.9 µM (inactive); with COLO 205, 5.25 µM (inactive); with EKVX, 31.3 µM (inactive); with SN12C it was 68.9 µM (inactive); in the assay on MCF7, 4.57 µM (inactive). Further, the GI50 was 9.23 µM (inactive) in the assay with UACC-62 and 2.65 µM (inactive) in the assay on MDA-MB-435.
With `COc1ccccc1C1=C2C(=O)N(C)C(c3ccccc3OC)=C2C(=O)N1C`, the GI50 in the assay with A498 is 63 µM (inactive); in the assay with NCI-H226, 84.3 µM (inactive); in the assay with PC-3, > 100 µM (inactive); with NCI-H522, 43.2 µM (inactive); with HOP-92 it was 30.3 µM (inactive); with IGROV-1 it was > 100 µM (inactive). Moreover, the GI50 with HT-29 is > 100 µM (inactive); with BT-549, > 100 µM (inactive); in the assay on OVCAR-8, 39.2 µM (inactive); in the assay on NCI-H23, 59 µM (inactive); with NCI-H460, 84.1 µM (inactive); in the assay with HCT-116, 37.4 µM (inactive). Besides, the GI50 in the assay with SF-539 is 27.6 µM (inactive); with OVCAR-4 it was 37.2 µM (inactive); in the assay on COLO 205 it was > 100 µM (inactive); in the assay with EKVX, > 100 µM (inactive); with SN12C, > 100 µM (inactive); in the assay on MCF7 it was > 100 µM (inactive). Also, the GI50 in the assay on UACC-62 and in the assay with MDA-MB-435 was > 100 µM (inactive) each time.
In the case of `COc1cc2c(c(OC)c1OC)C(=O)[C@@H]1[C@H]2N1C(=O)NCCCl`, the GI50 is 70.1 µM (inactive) in the assay with A498; 64 µM (inactive) with NCI-H226; 58.2 µM (inactive) with PC-3; 49.2 µM (inactive) with NCI-H522; > 100 µM (inactive) with HOP-92; 33.5 µM (inactive) with IGROV-1. Besides, the GI50 is 36 µM (inactive) in the assay with HT-29; 80.5 µM (inactive) in the assay with BT-549; 79.4 µM (inactive) in the assay on OVCAR-8; 43.4 µM (inactive) in the assay with NCI-H23; 40.6 µM (inactive) in the assay on NCI-H460; 41.7 µM (inactive) with HCT-116. The GI50 was 72.4 µM (inactive) in the assay on SF-539; 52.4 µM (inactive) in the assay on OVCAR-4; 27 µM (inactive) in the assay with COLO 205; 53 µM (inactive) in the assay on EKVX; 54.7 µM (inactive) in the assay with SN12C; 27.6 µM (inactive) in the assay with MCF7. The GI50 was 61.4 µM (inactive) in the assay on UACC-62 and 32.6 µM (inactive) with MDA-MB-435.
Consider `COc1ccccc1Nc1nc(N)nc(N)c1N=O`, for which the GI50 in the assay on A498 is > 100 µM (inactive); with NCI-H226, > 100 µM (inactive); in the assay on PC-3, > 100 µM (inactive); in the assay on NCI-H522, > 100 µM (inactive); in the assay on HOP-92, > 100 µM (inactive); in the assay with IGROV-1, 3.91 µM (inactive). Moreover, the GI50 was 78.2 µM (inactive) with HT-29; > 100 µM (inactive) in the assay on BT-549; > 100 µM (inactive) with OVCAR-8; > 100 µM (inactive) in the assay with NCI-H23; > 100 µM (inactive) in the assay with NCI-H460; > 100 µM (inactive) with HCT-116. Moreover, the GI50 in the assay on SF-539, in the assay with OVCAR-4, in the assay on COLO 205, with EKVX, with SN12C and with MCF7 was > 100 µM (inactive) each time. The GI50 in the assay with UACC-62 and in the assay on MDA-MB-435 was > 100 µM (inactive) throughout.
Regarding `COCN1C(N)=C(C(=O)OC(C)(C)C)C2=CC(=O)C=CC21C` (stereo not given), the GI50 in the assay on A498 is 20.1 µM (inactive); in the assay on NCI-H226 it was 16.8 µM (inactive); with PC-3, 16.9 µM (inactive); in the assay with NCI-H522 it was 3.4 µM (inactive); in the assay with HOP-92, 5.14 µM (inactive); in the assay on IGROV-1 it was 13.1 µM (inactive). In addition, the GI50 in the assay on HT-29 is 6.64 µM (inactive); with BT-549 it was 4.24 µM (inactive); in the assay with OVCAR-8 it was 18 µM (inactive); with NCI-H23, 15.4 µM (inactive); in the assay with NCI-H460, 18.4 µM (inactive); in the assay on HCT-116, 7.83 µM (inactive). Moreover, the GI50 in the assay on SF-539 was 17.4 µM (inactive); with OVCAR-4, 13.6 µM (inactive); in the assay with COLO 205, 5.01 µM (inactive); in the assay on EKVX, 16.5 µM (inactive); in the assay with SN12C, 25.8 µM (inactive); in the assay on MCF7, 11 µM (inactive). In addition, the GI50 is 15.6 µM (inactive) in the assay with UACC-62 and 13.2 µM (inactive) in the assay with MDA-MB-435.
Turning to `CNc1cc2oc(=O)cc(C)c2cc1C`, the GI50 in the assay on A498 is 43.2 µM (inactive); in the assay on NCI-H226, > 100 µM (inactive); in the assay on PC-3, > 100 µM (inactive); with NCI-H522, > 100 µM (inactive); with HOP-92, 89.3 µM (inactive); in the assay on IGROV-1, > 100 µM (inactive). For the same compound, the GI50 with HT-29 was > 100 µM (inactive); in the assay on BT-549 it was 15.4 µM (inactive); in the assay with OVCAR-8 it was > 100 µM (inactive); with NCI-H23 it was > 100 µM (inactive); with NCI-H460 it was > 100 µM (inactive); with HCT-116, > 100 µM (inactive). In addition, the GI50 in the assay on SF-539 was > 100 µM (inactive); in the assay on OVCAR-4 it was > 100 µM (inactive); with COLO 205 it was > 100 µM (inactive); in the assay with EKVX it was 59.6 µM (inactive); in the assay with SN12C, > 100 µM (inactive); in the assay with MCF7, 96.8 µM (inactive). The results for the GI50 in the assay with UACC-62 and in the assay on MDA-MB-435 were 72.6 µM (inactive) and 86.3 µM (inactive), respectively.
Regarding `CN(N=O)C(=O)NNC(=O)N(C)N=O`, the GI50 is > 100 µM (inactive) in the assay with A498; > 100 µM (inactive) with NCI-H226; 90.6 µM (inactive) in the assay with PC-3; 27 µM (inactive) in the assay with NCI-H522; 47.1 µM (inactive) in the assay with HOP-92; 65.8 µM (inactive) in the assay with IGROV-1. Moreover, the GI50 in the assay on HT-29 was > 100 µM (inactive); with BT-549, 91.8 µM (inactive); with OVCAR-8, 55.3 µM (inactive); in the assay with NCI-H23, 71.8 µM (inactive); in the assay with NCI-H460, 42.4 µM (inactive); with HCT-116 it was 74 µM (inactive). Besides, the GI50 was 49.1 µM (inactive) in the assay with SF-539; > 100 µM (inactive) in the assay with OVCAR-4; 50.1 µM (inactive) in the assay on COLO 205; 29.2 µM (inactive) in the assay on EKVX; > 100 µM (inactive) in the assay on SN12C; 35.6 µM (inactive) with MCF7. Further, the GI50 was 92.5 µM (inactive) in the assay on UACC-62 and > 100 µM (inactive) in the assay with MDA-MB-435.
`Cc1nc2c(cc1OCc1ccccc1)C(=O)C1=C(C2=O)C2OC(=O)CC2OC1(C)C` (stereo not given): the GI50 is 1.6 µM (inactive) with A498; 1.09 µM (active) with NCI-H226; 0.56 µM (active) with PC-3; 0.149 µM (active) in the assay with NCI-H522; 0.375 µM (active) with HOP-92; 0.312 µM (active) in the assay with IGROV-1. The GI50 was 0.375 µM (active) with HT-29; 0.564 µM (active) in the assay with BT-549; 2.72 µM (inactive) in the assay on OVCAR-8; 0.944 µM (active) in the assay with NCI-H23; 1.32 µM (inactive) in the assay on NCI-H460; 0.28 µM (active) in the assay with HCT-116. Moreover, the 50% growth inhibitory concentration (GI50) in the assay with SF-539 was 0.728 µM (active); with OVCAR-4 it was 0.498 µM (active); in the assay with COLO 205 it was 0.326 µM (active); with EKVX it was 1.55 µM (inactive); with SN12C it was 0.182 µM (active); in the assay with MCF7, 0.173 µM (active). Also, the GI50 in the assay on UACC-62 is 0.174 µM (active); in the assay on MDA-MB-435, 0.55 µM (active).

These data come from ChEMBL document CHEMBL1201862, “PubChem BioAssay data set” (2004).
